The structures appear in SMILES notation.

This assay in a line: Inhibition of replication of HCV 1b BK RNA in Huh7 cells.

The term EC50 denotes the concentration that produces a half-maximal response. Read a low EC50 as higher potency in that assay. `O=C(NCc1ccccc1Cl)Nc1ccsc1-c1nc(C(=O)O)c(O)c(=O)[nH]1` [2-(3-(3-(2-chlorobenzyl)ureido)thiophen-2-yl)-5,6-dihydroxypyrimidine-4-carboxylic acid]: the EC50 is 3.1 µM.
